The values that follow come from US9833497B2, “Human originated EGF domain proteins and use of the same” (CHENGDU SOURCEBIO LIMITED-LIABILITY COMPANY, priority 2013, dated 2017).

Common to all, as to assay type: cell-based
In one assay the test system is Proteus mirabilis. The assay can be described thus: MIC against Gram-negative bacteria: Proteus mirabilis. Conditions: for MIC against P. mirabilis: Proteus mirabilis, 96-well plate, 37° C., 10 h. The method in brief: (§1)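 Broth microdilution, LB medium, final inoculum 5×10^5 CFU/mL from McFarland 0.5 cultures. Recombinant human EGF domain proteins tested in two-fold steps, n=3. MIC: lowest concentration, no growth.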

The next assay relates to Proteus vulgaris. Put plainly: MIC against Gram-negative bacteria: Proteus vulgaris. The settings on record: for MIC against P. vulgaris: Proteus vulgaris, 96-well plate, 37° C., 10 h. The method in brief: as §1
The subject of a further assay is Enterobacter cloacae. The assay can be described thus: MIC against Gram-negative bacteria: Enterobacter cloacae. Conditions: for MIC against E. cloacae: Enterobacter cloacae, 96-well plate, 37° C., 10 h. The method in brief:
as §1

A further assay relates to Pseudomonas aeruginosa. Put plainly: MIC against Gram-negative bacteria: Pseudomonas aeruginosa. Conditions: for MIC against P. aeruginosa: Pseudomonas aeruginosa, 96-well plate, 37° C., 10 h. The method in brief:
as §1

The subject of another assay is E. coli DH5α. The assay can be described thus: Antibacterial activity: MIC and growth curve against E. coli DH5α in 96-well plate. The settings on record: minimal inhibitory concentration against E. coli DH5α; 96-well plate, 5×10^5 CFU/mL, 37° C., judged after 8 h. The method in brief: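 Log-phase bacteria (OD600 ~0.5) resuspended in LB at 5×10^5 CFU/mL, exposed to recombinant protein at 50, 25, 12.5 μg/mL final in triplicate, 37 °C shaking at 175 rpm. OD600 read every 30 min; MIC is lowest concentration showing no growth.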

In a further assay the test system is Citrobacter diversus. Put plainly: MIC against Gram-negative bacteria: Citrobacter diversus. The settings on record: for MIC against C. diversus: Citrobacter diversus, 96-well plate, 37° C., 10 h. The method in brief:
as §1

For the next assay, the system named is Aeromonas hydrophila. The assay can be described thus: MIC against Gram-negative bacteria: Aeromonas hydrophila. The settings on record: for MIC against A. hydrophila: Aeromonas hydrophila, 96-well plate, 37° C., 10 h. The method in brief:
as §1

In another assay the test system is Klebsiella pneumonia. Put plainly: MIC against Gram-negative bacteria: Klebsiella pneumonia. Conditions: for MIC against K. pneumonia: Klebsiella pneumonia, 96-well plate, 37° C., 10 h. The method in brief:
as §1

For the next assay, the system named is E. coli BL21. Put plainly: MIC against Gram-negative bacteria: E. coli BL21. Conditions: for MIC against E. coli BL21: 96-well plate, 37° C., 10 h. The method in brief:
as §1

The next assay deals with Serratia marcescens. The assay can be described thus: MIC against Gram-negative bacteria: Serratia marcescens. The settings on record: for MIC against S. marcescens: Serratia marcescens, 96-well plate, 37° C., 10 h. The method in brief: as §1
In another assay the test system is Moraxella catarrhalis. The assay can be described thus: MIC against Gram-negative bacteria: Moraxella catarrhalis. The settings on record: for MIC against M. catarrhalis: Moraxella catarrhalis, 96-well plate, 37° C., 10 h. The method in brief: as §1
[1] abbreviates: 10 h cultivation at 37° C., 5×10^5 CFU/mL, two-fold serial dilution.

Consider “PRT1319 (SMGDCGPTGLAQHCHLHARCVSQEGVARCRCLDGFEGDGFS; listed as Homo sapiens)”, for which the “MIC against P. mirabilis” value in the assay on Proteus mirabilis (5×10^5 CFU/mL) came out at 25 µg/mL. Besides, in the assay on Proteus vulgaris (5×10^5 CFU/mL), the “MIC against P. vulgaris” value worked out at 12.5 µg/mL. In addition, the “MIC against E. cloacae” value against Enterobacter cloacae (5×10^5 CFU/mL) is 25 µg/mL. Moreover, in the assay with Pseudomonas aeruginosa (5×10^5 CFU/mL), the “MIC against P. aeruginosa” value was 12.5 µg/mL. For the same substance, in the assay on E. coli DH5α, the MIC (usually the least concentration at which growth counts as inhibited) was 12.5 µg/mL. Also, the “MIC against C. diversus” value against Citrobacter diversus (5×10^5 CFU/mL) stood at 12.5 µg/mL. Further, the “MIC against A. hydrophila” value in the assay on Aeromonas hydrophila (5×10^5 CFU/mL) was determined as 25 µg/mL. The “MIC against K. pneumonia” value with Klebsiella pneumonia (5×10^5 CFU/mL) is 25 µg/mL. The “MIC against E. coli BL21” value against E. coli BL21 (E. coli BL21, 5×10^5 CFU/mL) amounted to 50 µg/mL. In addition, the “MIC against S. marcescens” value in the assay with Serratia marcescens (5×10^5 CFU/mL) was found to be 12.5 µg/mL. The “MIC against M. catarrhalis” value with Moraxella catarrhalis (5×10^5 CFU/mL) turned out to be 25 µg/mL.
For “PRT1187 (NTNDCNPLPCYNGGICVDGVNWFRCECAPGFAGPDCR; listed as Homo sapiens)”, the “MIC P. mirabilis” value against Proteus mirabilis (setting [1]) is 25 µg/mL. Moreover, the “MIC P. vulgaris” value against Proteus vulgaris (setting [1]) is 12.5 µg/mL. Moreover, the “MIC E. cloacae” value in the assay on Enterobacter cloacae (setting [1]) turned out to be 25 µg/mL. Besides, the “MIC P. aeruginosa” value against Pseudomonas aeruginosa (setting [1]) was found to be 12.5 µg/mL. Also, in the assay with E. coli DH5α, the MIC worked out at 50 µg/mL. In addition, the “MIC C. diversus” value against Citrobacter diversus (setting [1]) was 12.5 µg/mL. The “MIC A. hydrophila” value against Aeromonas hydrophila (setting [1]) is 12.5 µg/mL. The “MIC K. pneumonia” value against Klebsiella pneumonia (setting [1]) was 25 µg/mL. Besides, the “MIC E. coli BL21” value with E. coli BL21 (setting [1]) stood at 25 µg/mL. The “MIC S. marcescens” value with Serratia marcescens (setting [1]) was found to be 12.5 µg/mL. Further, the “MIC M. catarrhalis” value in the assay with Moraxella catarrhalis (setting [1]) was 12.5 µg/mL.
For “PRT1251 (CAFVCADCGSGHCDFQSGRCLCSPGVHGPHCN; listed as Homo sapiens)”, the “MIC against P. mirabilis” value with Proteus mirabilis (5×10^5 CFU/mL) came out at 12.5 µg/mL. The “MIC against P. vulgaris” value in the assay with Proteus vulgaris (5×10^5 CFU/mL) is 25 µg/mL. Further, in the assay on Enterobacter cloacae (5×10^5 CFU/mL), the “MIC against E. cloacae” value is 12.5 µg/mL. Moreover, the “MIC against P. aeruginosa” value against Pseudomonas aeruginosa (5×10^5 CFU/mL) came to 50 µg/mL. The MIC in the assay on E. coli DH5α was found to be 100 µg/mL. For the same substance, in the assay with Citrobacter diversus (5×10^5 CFU/mL), the “MIC against C. diversus” value is 50 µg/mL. The “MIC against A. hydrophila” value against Aeromonas hydrophila (5×10^5 CFU/mL) turned out to be 25 µg/mL. For the same substance, in the assay with Klebsiella pneumonia (5×10^5 CFU/mL), the “MIC against K. pneumonia” value is 25 µg/mL. The “MIC against E. coli BL21” value against E. coli BL21 (E. coli BL21, 5×10^5 CFU/mL) came to 25 µg/mL. In addition, the “MIC against S. marcescens” value with Serratia marcescens (5×10^5 CFU/mL) amounted to 50 µg/mL. In the assay on Moraxella catarrhalis (5×10^5 CFU/mL), the “MIC against M. catarrhalis” value came out at 25 µg/mL.
As to “PRT252 (TAACTNTSCSGHGECVETINNYTCKCDPGFSGLKCE; listed as Homo sapiens)”, the “MIC (μg/mL) P. mirabilis” value against Proteus mirabilis (P. mirabilis, 10 h cultivation at 37° C., 5×10^5 CFU/mL) came to 25 µg/mL. Further, the “MIC (μg/mL) P. vulgaris” value against Proteus vulgaris (P. vulgaris, 10 h cultivation at 37° C., 5×10^5 CFU/mL) amounted to 12.5 µg/mL. Further, in the assay on Enterobacter cloacae (E. cloacae, 10 h cultivation at 37° C., 5×10^5 CFU/mL), the “MIC (μg/mL) E. cloacae” value is 25 µg/mL. Also, the “MIC (μg/mL) P. aeruginosa” value with Pseudomonas aeruginosa (P. aeruginosa, 10 h cultivation at 37° C., 5×10^5 CFU/mL) is 25 µg/mL. In the assay with E. coli DH5α, this substance had an MIC of 25 µg/mL. The “MIC (μg/mL) C. diversus” value in the assay with Citrobacter diversus (C. diversus, 10 h cultivation at 37° C., 5×10^5 CFU/mL) was 25 µg/mL. Besides, the “MIC (μg/mL) A. hydrophila” value in the assay with Aeromonas hydrophila (A. hydrophila, 10 h cultivation at 37° C., 5×10^5 CFU/mL) stood at 12.5 µg/mL. For the same substance, the “MIC (μg/mL) K. pneumonia” value against Klebsiella pneumonia (K. pneumonia, 10 h cultivation at 37° C., 5×10^5 CFU/mL) came to 12.5 µg/mL. In the assay with E. coli BL21 (E. coli BL21, 10 h cultivation at 37° C., 5×10^5 CFU/mL), the “MIC (μg/mL) E. coli BL21” value is 12.5 µg/mL. Moreover, in the assay with Serratia marcescens (S. marcescens, 10 h cultivation at 37° C., 5×10^5 CFU/mL), the “MIC (μg/mL) S. marcescens” value was 25 µg/mL. Further, in the assay with Moraxella catarrhalis (M. catarrhalis, 10 h cultivation at 37° C., 5×10^5 CFU/mL), the “MIC (μg/mL) M. catarrhalis” value was determined as 12.5 µg/mL.
Turning to “PRT950 (CESGCASSPCQHGGSCHPQRQPPYYSCQCAPPFSGSRCE; listed as Homo sapiens)”, the MIC against Proteus mirabilis (P. mirabilis, 10 h cultivation at 37° C.) came to 50 µg/mL; against Proteus vulgaris (P. vulgaris, 10 h cultivation at 37° C.), 25 µg/mL; in the assay on Enterobacter cloacae (E. cloacae, 10 h cultivation at 37° C.) it was 12.5 µg/mL; in the assay with Pseudomonas aeruginosa (P. aeruginosa, 10 h cultivation at 37° C.) it was 50 µg/mL; against E. coli DH5α it was 50 µg/mL; in the assay on Citrobacter diversus (C. diversus, 10 h cultivation at 37° C.) it was 25 µg/mL. Moreover, the MIC in the assay on Aeromonas hydrophila (A. hydrophila, 10 h cultivation at 37° C.) was determined as 50 µg/mL; in the assay on Klebsiella pneumonia (K. pneumonia, 10 h cultivation at 37° C.), 25 µg/mL; against E. coli BL21 (E. coli BL21, 10 h cultivation at 37° C.), 12.5 µg/mL; in the assay with Serratia marcescens (S. marcescens, 10 h cultivation at 37° C.) it was 12.5 µg/mL; against Moraxella catarrhalis (M. catarrhalis, 10 h cultivation at 37° C.) it was 12.5 µg/mL.
